Source: patent publication US7453555B2, “Aggregometer with near ultraviolet light source” (Bio/Data Corporation, priority 2005, dated 2008)
Several values for one entry are separate records, joined by “and”; a condition that tells them apart may be missing. Equal entries are not always repeated.

What was measured:
Type in all cases: cell-based
[1] = test system: platelets (platelet rich plasma); assay: PAP-8E normal aggregation test, channel to channel data; parameters: Average % Agg.: dose or concentration left out as unconfirmed; details: for Average Slope: PAP-8E 340 nM LED; for Average % Agg.: PAP-8E 340 nm LED
Method: This test method preferably uses a normal platelet rich plasma (PRP) that has 200,000 platelets per cubic mm, with 1 μL volume. At about 6 μm long (oval), the platelets are quite small.
The normal test volume for the PAP-8E using the UV LED's is 500 μL. Using this volume, and the 200,000 platelets per cubic mm, we can assume there are (500×200,000=) 100,000,000 platelets.
During testing the beam of radiation passes through about 25% of the PRP. The task then, is to measure how many and how fast this smaller percentage of the PRP reacts and aggregates. This is done by the measurement of the change in transmission between a platelet poor (PPP) blank and the platelet rich sample.
The channel to channel variation in the PAP-8 E is now less than 11% CV for slope reproducibility and less than 8% CV for % aggregation reproducibility.

platelets [2] = assay: Ristocetin dilution test (factor assay), PAP-8E aggregometer with short-wavelength LED; details: for 100% Avg. / 100% Slope: 100% level
Method: (§1) Factor assay test methods benefit from the higher sensitivity of aggregometers utilizing short-wavelength LEDs. In these methods, reference curves are developed with a standard plasma (90-120% activity of the factor) that is serially diluted (down) to an activity of 1.56% (1:64 dilution). Tests are based on the rate of change in optical density.
(§2) This is a quality control test in which ristocetin/plasma are tested to select the best dilution for a lot of ristocetin reagent. The attenuation of samples was measured at 8.5 mg/ml to 11.0 mg/ml concentrations to determine a slope of each sample (see Table 1, 100% slope, 100% Avg.). The slope is known by those skilled in the art as an indicator of the rate of reaction of the ristocetin reagent. Each of the 8.5 mg/ml to 11.0 mg/ml concentration ristocetin/plasma concentrations were also respectively tested diluted to 50% (see Table 1, 50% slope, 50% Avg.). The results of Table 1 are plotted in FIGS. 4a and 4b. FIG. 4a plots the slopes for each concentration at both 100% and 50% levels. FIG. 4b plots the difference in slopes between the 100% and 50% dilution levels for each concentration. […] Such irregularity makes reliable testing and analysis decision making difficult. […]
The most common use of aggregation in the United States is a test method called the Ristocetin Cofactor Assay. This assay uses standard lyophilized platelets and a plasma that contains a factor. This method uses a standard curve where the standard plasma is diluted to concentrations of 100% to 25%.

platelets [3] = assay: Ristocetin dilution test (factor assay), PAP-4 aggregometer with 626 nm LED; details: PAP-4 626 nm LED; for 100% Avg. / 100% Slope: 100% level
Text: as §1
Table 1 below and FIGS. 4a and 4b provide test results of a factor assay test: a ristocetin dilution test using an aggregometer with a 626 nm (long-wavelength) LED.
as §2

[4] = Ristocetin 8.5 mg/ml diluted to 50%
[5] = Ristocetin 9.0 mg/ml diluted to 50%
[6] = Ristocetin 9.5 mg/ml diluted to 50%
[7] = Ristocetin 10.0 mg/ml diluted to 50%
[8] = Ristocetin 10.5 mg/ml diluted to 50%
[9] = Ristocetin 11.0 mg/ml diluted to 50%

Nc1ncnc2c1ncn2[C@@H]1O[C@H](COP(=O)(O)OP(=O)(O)O)[C@@H](O)[C@H]1O [ADP]
Average Slope [1]: 41.3 | Average % Agg. [1]: 72.6%

CCCCC/C=C\C/C=C\C/C=C\C/C=C\CCCC(=O)O [Arachidonic Acid]
Average Slope [1]: 38.9 | Average % Agg. [1]: 73.5%

CNC[C@H](O)c1ccc(O)c(O)c1 [Epinephrine]
Average Slope [1]: 30.5 | Average % Agg. [1]: 73.1%

Collagen
Average Slope [1]: 44.0 | Average % Agg. [1]: 74.9%

ristocetin
Difference 100 − 50 (platelets [2]; Ristocetin 8.5 mg/ml): 2.5 | 50% Avg. (platelets [2]; [4]): 23.0 | 50% Slope (platelets [2]; [4]): 22.0 and 24.0 | 100% Avg. (platelets [2]; Ristocetin 8.5 mg/ml): 25.5 | 100% Slope (platelets [2]; Ristocetin 8.5 mg/ml): 23.0 and 28.0 | Difference 100 − 50 (platelets [2]; Ristocetin 9.0 mg/ml): 5.0 | 50% Avg. (platelets [2]; [5]): 26.5 | 50% Slope (platelets [2]; [5]): 28.0 and 25.0 | 100% Avg. (platelets [2]; Ristocetin 9.0 mg/ml): 31.5 | 100% Slope (platelets [2]; Ristocetin 9.0 mg/ml): 32.0 and 31.0 | Difference 100 − 50 (platelets [2]; Ristocetin 9.5 mg/ml): 8.0 | 50% Avg. (platelets [2]; [6]): 23.5 | 50% Slope (platelets [2]; [6]): 24.0 and 23.0 | 100% Avg. (platelets [2]; Ristocetin 9.5 mg/ml): 31.5 | 100% Slope (platelets [2]; Ristocetin 9.5 mg/ml): 31.0 and 32.0 | Difference 100 − 50 (platelets [2]; Ristocetin 10.0 mg/ml): 9.0 | 50% Avg. (platelets [2]; [7]): 21.5 | 50% Slope (platelets [2]; [7]): 22.0 and 21.0 | 100% Avg. (platelets [2]; Ristocetin 10.0 mg/ml): 30.5 | 100% Slope (platelets [2]; Ristocetin 10.0 mg/ml): 31.0 and 30.0 | Difference 100 − 50 (platelets [2]; Ristocetin 10.5 mg/ml): 8.0 | 50% Avg. (platelets [2]; [8]): 23.5 | 50% Slope (platelets [2]; [8]): 21.0 and 26.0 | 100% Avg. (platelets [2]; Ristocetin 10.5 mg/ml): 31.5 | 100% Slope (platelets [2]; Ristocetin 10.5 mg/ml): 30.0 and 33.0 | Difference 100 − 50 (platelets [2]; Ristocetin 11.0 mg/ml): 4.0 | 50% Avg. (platelets [2]; [9]): 27.5 | 50% Slope (platelets [2]; [9]): 29.0 and 26.0 | 100% Avg. (platelets [2]; Ristocetin 11.0 mg/ml): 31.5 | 100% Slope (platelets [2]; Ristocetin 11.0 mg/ml): 30.0 and 33.0 | 50% Avg. (platelets [3]; [4]): 29.5 | 50% Slope (platelets [3]; [4]): 29.0 and 30.0 | 100% Avg. (platelets [3]; Ristocetin 8.5 mg/ml): 42.0 | 100% Slope (platelets [3]; Ristocetin 8.5 mg/ml): 42.0 | Difference 100 − 50 (platelets [3]; Ristocetin 8.5 mg/ml): 12.5 | 50% Avg. (platelets [3]; [5]): 33.5 | 50% Slope (platelets [3]; [5]): 32.0 and 35.0 | 100% Avg. (platelets [3]; Ristocetin 9.0 mg/ml): 46.5 | 100% Slope (platelets [3]; Ristocetin 9.0 mg/ml): 47.0 and 46.0 | Difference 100 − 50 (platelets [3]; Ristocetin 9.0 mg/ml): 13.0 | 50% Avg. (platelets [3]; [6]): 32.0 | 50% Slope (platelets [3]; [6]): 33.0 and 31.0 | 100% Avg. (platelets [3]; Ristocetin 9.5 mg/ml): 40.5 | 100% Slope (platelets [3]; Ristocetin 9.5 mg/ml): 41.0 and 40.0 | Difference 100 − 50 (platelets [3]; Ristocetin 9.5 mg/ml): 8.5 | 50% Avg. (platelets [3]; [7]): 33.5 | 50% Slope (platelets [3]; [7]): 33.0 and 34.0 | 100% Avg. (platelets [3]; Ristocetin 10.0 mg/ml): 43.5 | 100% Slope (platelets [3]; Ristocetin 10.0 mg/ml): 41.0 and 46.0 | Difference 100 − 50 (platelets [3]; Ristocetin 10.0 mg/ml): 10.0 | 50% Avg. (platelets [3]; [8]): 33.0 | 50% Slope (platelets [3]; [8]): 31.0 and 35.0 | 100% Avg. (platelets [3]; Ristocetin 10.5 mg/ml): 39.5 | 100% Slope (platelets [3]; Ristocetin 10.5 mg/ml): 39.0 and 40.0 | Difference 100 − 50 (platelets [3]; Ristocetin 10.5 mg/ml): 6.5 | 50% Avg. (platelets [3]; [9]): 28.5 | 50% Slope (platelets [3]; [9]): 28.0 and 29.0 | 100% Avg. (platelets [3]; Ristocetin 11.0 mg/ml): 36.5 | 100% Slope (platelets [3]; Ristocetin 11.0 mg/ml): 41.0 and 32.0 | Difference 100 − 50 (platelets [3]; Ristocetin 11.0 mg/ml): 8.0
